Source: patent publication US10213415B2, “Compounds as opioid receptor modulators” (JANSSEN PHARMACEUTICA NV, priority 2004, dated 2019)

Assays:
mu opioid receptor = molecular target: T1, mu opioid receptor (Rattus norvegicus, UniProt P33535); experiment: Rat Brain Mu Opioid Receptor Binding Assay (and Version 2a, [3H]DAMGO); conditions: rat forebrain membranes, margin of error 10-20%, read-out: r Ki μ
T1 construct: from tissue; host or cells: forebrain of male Wistar rats
In short: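 Displacement of the mu-selective radioligand [3H]DAMGO (0.8 nM) measured by filtration and scintillation counting after 2.5 h at 25° C. Membranes came from male Wistar rat forebrain in Tris-HCl (50 mM, pH 7.4) plus 5 mM MgCl2; Ki derived from concentration–response, % inhibition for single doses.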

[1] = molecular target: T2, delta opioid receptor (NG108-15 cell membranes) (Mus musculus, UniProt P32300); experiment: Delta Opioid Receptor Functional Assay: [35S]GTPγS Binding in NG108-15 Cell Membranes, Version 2; format: biochemical; conditions: NG108-15 cell membranes, version 2; for EC50: [35S]GTPγS, read-out: DOR GTP-binding Assay_v2_ EC50; for DOR GTP-binding Assay v2 (% I): % inhibition of agonist-stimulated GTPγS binding
T2 construct: NG108-15 cell membranes were purchased from Applied Cell Sciences (Rockville, Md.); host or cells: NG108-15 cells (membranes purchased)
Description: NG108-15 cell membranes were purchased from Applied Cell Sciences (Rockville, Md.). 8 mg/ml of membrane protein suspended in 10 mM TRIS-HC pH 7.2, 2 mM EDTA, 10% sucrose.
Membranes were maintained at 4-8° C. A portion (1 ml) of membranes was added into 10 ml cold binding assay buffer. The assay buffer contained 50 mM Tris, pH 7.6, 5 mM MgCl2, 100 mM NaCl, 1 mM DTT and 1 mM EGTA. The membrane suspension was homogenized with a Polytron for 2 times and centrifuged at 3000 rpm for 10 min. The supernent was then centrifuged at 18,000 rpm for 20 min. The pellet was saved in a tube and 10 ml assay buffer was added into the tube. The pellet and buffer were mixed with a Polytron.
The pellet membranes (75 μg/ml) were preincubated with SPA (10 mg/ml) at 25° C. for 45 min in the assay buffer. The SPA (5 mg/ml) coupled with membranes (37.5 μg/ml) was then incubated with 0.1 nM [^35S] GTPγS in the same Tris buffer containing 100 μM GDP in total volume of 200 μl. Increasing concentrations of receptor agonists were used to stimulate [^35S] GTPγS binding. The basal binding was tested in the absent agonists and no specific binding was tested in the present 10 μM unlabeled GTPγS. The data were analyzed on a Top counter.
[formula] % Inhibition=(% stimulation by 1 μM SNC80−% stimulation by 1 μM SNC80 in presence of test compound)×100/(% Stimulation by 1 μM SNC80−100) % of Basal=(stimulate−non specific)*100/(basal−non specific). EC50 values were calculated using GraphPad Prism.

delta opioid receptor = molecular target: T3, delta opioid receptor (Rattus norvegicus, UniProt P33533); experiment: Rat Brain Delta Opioid Receptor Binding Assay ([3H]DPDPE); conditions: rat forebrain membranes, margin of error 10-20%, read-out: r Ki δ
T3 construct: from tissue; host or cells: forebrain of male Wistar rats
Description: Male, Wistar rats (150-250 g, VAF, Charles River, Kingston, N.Y.) are killed by cervical dislocation, and their brains removed and placed immediately in ice cold Tris HCl buffer (50 mM, pH 7.4). The forebrains are separated from the remainder of the brain by a coronal transection, beginning dorsally at the colliculi and passing ventrally through the midbrain-pontine junction. After dissection, the forebrains are homogenized in Tris buffer in a Teflon® glass homogenizer. The homogenate is diluted to a concentration of 1 g of forebrain tissue per 80 mL Tris and centrifuged at 39,000×g for 10 min. The pellet is resuspended in the same volume of Tris buffer containing 5 mM MgCl2 with several brief pulses from a Polytron homogenizer. This particulate preparation is used for the delta opioid binding assays. Following incubation with the delta selective peptide ligand ˜4 nM [^3H]DPDPE at 25° C. for 2.5 h in a 96-well plate with total volume of 1 mL, the plate contents are filtered through Wallac filtermat B sheets on a Tomtec 96-well harvester. The filters are rinsed three times with 2 mL of 10 mM HEPES (pH 7.4), and dried in a microwave oven 2 min twice. To each sample area 2×50 μL of Betaplate Scint scintillation fluid (LKB) is added and analyzed on a LKB (Wallac) 1205 BetaPlate liquid scintillation counter.
The data are used to calculate either the % inhibition compared to control binding (when only a single concentration of test compound is evaluated) or a Ki value (when a range of concentrations is tested). % inhibition is calculated as: [(total dpm−test compound dpm)/(total dpm−nonspecific dpm)]*100. Kd and Ki values were calculated using GraphPad PRISM data analysis program.

[2] = molecular target: T4, mu opioid receptor (CHO-hMOR cell membranes) (Homo sapiens, UniProt P35372); experiment: Mu Opioid Receptor Functional Assay: [35S]GTPγS Binding in CHO-hMOR Cell Membranes, Versions 1 and 2; format: biochemical; conditions: for MOR GTP binding assay_v2 (% I): version 2, % inhibition of agonist-stimulated GTPγS binding; for EC50: version 2, read-out: MOR GTP binding assay v2 EC50
T4 construct: purchased Receptor Biology, Inc. (Baltimore, Md.); host or cells: CHO cells (recombinant expression)
In short: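 Agonist-stimulated [35S]GTPγS (0.5 nM) binding measured by SPA in human MOR CHO membranes, buffer pH 7.6 with 100 mM NaCl, 5 mM MgCl2. Antagonist mode: % inhibition of stimulation by 1 μM SNC80; agonist mode: EC50 fitted. Basal binding without agonist, non-specific with 10 μM cold GTPγS.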

human mu opioid receptor = molecular target: T5, human mu opioid receptor (Homo sapiens, UniProt P35372); experiment: Human Mu Opioid Receptor Binding Assay (CHO membranes, 3H-Damgo); conditions: read-out: hKi μ
T5 construct: purchased Perkin Elmer RBHOMM400UA; host or cells: Chinese Hamster Ovary cells (recombinant expression)
In short: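 Radioligand displacement of ³H-Damgo (diluted to 3.6 nM pre-mix) from recombinant human mu receptor in CHO membranes, 2 h, room temperature, 50 mM Tris pH 7.5 with 5 mM MgCl2. Bound label read by filtration and scintillation counting; 1 μM unlabelled Damgo defines nonspecific binding.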

[3] = molecular target: T6, human delta subtype 2 opioid receptor (Homo sapiens, UniProt P41143); experiment: Human Delta Opioid Receptor Binding Assay (CHO membranes, 3H-Naltrindole); conditions: read-out: hKi δ
T6 construct: purchased Perkin Elmer RBHODM400UA; host or cells: Chinese Hamster Ovary cells (recombinant expression)
In short: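 Compound displacement of tritiated naltrindole (6 nM working dilution) measured by scintillation counting after GF/C filtration. Receptor source: recombinant CHO membranes; buffer 50 mM Tris, 5 mM MgCl2, pH 7.5; 30 min room-temperature incubation. 1 μM cold naltrindole sets nonspecific binding.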

T2 sequence (P32300 whole entry): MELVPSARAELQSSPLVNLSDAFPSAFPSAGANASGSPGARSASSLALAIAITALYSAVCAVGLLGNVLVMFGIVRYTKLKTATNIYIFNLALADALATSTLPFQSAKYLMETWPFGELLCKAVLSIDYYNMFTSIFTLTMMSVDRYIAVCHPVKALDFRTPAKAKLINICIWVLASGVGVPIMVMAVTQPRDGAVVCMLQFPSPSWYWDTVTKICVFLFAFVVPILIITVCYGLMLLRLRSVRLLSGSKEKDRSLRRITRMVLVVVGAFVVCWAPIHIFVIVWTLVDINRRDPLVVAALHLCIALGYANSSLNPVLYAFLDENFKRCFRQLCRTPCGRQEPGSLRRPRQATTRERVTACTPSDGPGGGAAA
T4 sequence (P35372 whole entry): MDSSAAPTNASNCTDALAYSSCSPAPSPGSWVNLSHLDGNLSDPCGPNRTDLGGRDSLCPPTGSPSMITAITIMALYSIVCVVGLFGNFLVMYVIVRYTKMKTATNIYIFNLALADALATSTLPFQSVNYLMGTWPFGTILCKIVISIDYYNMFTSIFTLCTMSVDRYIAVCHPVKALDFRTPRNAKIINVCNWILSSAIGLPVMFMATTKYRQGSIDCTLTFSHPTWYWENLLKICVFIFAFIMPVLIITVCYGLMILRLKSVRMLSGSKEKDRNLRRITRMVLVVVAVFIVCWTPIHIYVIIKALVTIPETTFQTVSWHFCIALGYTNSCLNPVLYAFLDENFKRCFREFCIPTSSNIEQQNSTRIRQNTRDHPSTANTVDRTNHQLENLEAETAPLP
T5 sequence (P35372 whole entry): as above
T1 sequence (P33535 whole entry): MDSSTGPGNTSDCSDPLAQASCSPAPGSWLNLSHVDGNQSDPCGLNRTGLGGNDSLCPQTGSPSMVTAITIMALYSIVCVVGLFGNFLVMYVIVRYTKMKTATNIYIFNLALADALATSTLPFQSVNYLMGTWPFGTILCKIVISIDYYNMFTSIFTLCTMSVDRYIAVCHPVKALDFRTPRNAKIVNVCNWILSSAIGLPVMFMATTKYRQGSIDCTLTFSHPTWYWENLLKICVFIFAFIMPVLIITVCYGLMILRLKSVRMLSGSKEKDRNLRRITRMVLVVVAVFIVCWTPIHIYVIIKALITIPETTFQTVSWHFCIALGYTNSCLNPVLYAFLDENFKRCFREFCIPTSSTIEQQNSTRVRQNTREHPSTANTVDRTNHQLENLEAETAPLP
T3 sequence (P33533 whole entry): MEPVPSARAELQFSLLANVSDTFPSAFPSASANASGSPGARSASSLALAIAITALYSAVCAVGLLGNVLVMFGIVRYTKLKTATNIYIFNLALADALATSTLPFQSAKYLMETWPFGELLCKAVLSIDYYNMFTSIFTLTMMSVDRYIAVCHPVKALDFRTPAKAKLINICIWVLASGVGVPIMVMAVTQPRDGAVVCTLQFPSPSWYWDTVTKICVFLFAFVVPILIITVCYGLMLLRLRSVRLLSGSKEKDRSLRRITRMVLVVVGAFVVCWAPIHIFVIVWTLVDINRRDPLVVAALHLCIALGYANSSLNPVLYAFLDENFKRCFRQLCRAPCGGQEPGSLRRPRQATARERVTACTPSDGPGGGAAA
T6 sequence (P41143 whole entry): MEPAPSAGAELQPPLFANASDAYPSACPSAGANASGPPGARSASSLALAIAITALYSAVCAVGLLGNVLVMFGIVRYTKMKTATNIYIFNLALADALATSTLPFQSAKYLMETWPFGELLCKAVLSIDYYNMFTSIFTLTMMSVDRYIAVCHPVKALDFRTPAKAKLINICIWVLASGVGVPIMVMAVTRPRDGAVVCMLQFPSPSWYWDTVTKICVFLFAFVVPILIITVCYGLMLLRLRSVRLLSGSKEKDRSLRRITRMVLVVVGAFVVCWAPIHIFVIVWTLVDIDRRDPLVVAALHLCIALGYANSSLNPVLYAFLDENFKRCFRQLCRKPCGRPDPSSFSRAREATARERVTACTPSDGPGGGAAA

Compound	Ki (mu opioid receptor) [nM]	EC50 [1] [nM]	DOR GTP-binding Assay v2 (% I) [1] [%]	Ki (delta opioid receptor) [nM]	MOR GTP binding assay_v2 (% I) [2] [%]	EC50 [2] [nM]	Ki (human mu opioid receptor) [nM]	Ki [3] [nM]
COc1ccc(CN(C(=O)[C@@H](N)Cc2c(C)cc(C(N)=O)cc2C)[C@@H](C)c2nc(-c3ccc(Br)cc3)c[nH]2)cc1C(=O)O [Cpd 291]	0.47	> 10000	96.52	0.12				
COC(=O)c1cccc(CN(C(=O)[C@@H](N)Cc2c(C)cc(C(N)=O)cc2C)[C@@H](C)c2nc(-c3ccccc3)c[nH]2)n1 [Cpd 313]		5.03	49		29.00	50.6		
Cc1cc(O)cc(C)c1C[C@H](N)C(=O)N(Cc1ccc(C(F)(F)F)cc1)[C@@H](C)c1nc(-c2ccccc2)c[nH]1 [Cpd 249]	0.12	8	20.14	0.18				
COc1ccc(CN(C(=O)[C@@H](N)Cc2c(C)cc(C(N)=O)cc2C)[C@@H](C)c2nc(-c3ccc(Cl)cc3)c(C)[nH]2)cc1C(=O)O [Cpd 239]	0.44	> 10000		0.1				
COc1cc(CN(C(=O)[C@@H](N)Cc2c(C)cc(C(N)=O)cc2C)[C@@H](C)c2nc(-c3ccccc3)c[nH]2)ccc1C(=O)O [Cpd 14]		0.6	59.70	0.36			4.7	
COC(=O)c1ccc(CN(C(=O)[C@@H](N)Cc2c(C)cc(O)cc2C)[C@@H](C)c2nc(-c3ccccc3)c[nH]2)o1 [Cpd 286]	0.05	2.6	34.65	0.11				
Cc1cc(O)cc(C)c1C[C@H](N)C(=O)N(Cc1ccc(OC(C)C)cc1)[C@@H](C)c1nc(-c2ccccc2)c[nH]1 [Cpd 250]	0.06	10	34.93	0.21				
Cc1cc(C(N)=O)cc(C)c1C[C@H](N)C(=O)N(Cc1ccccc1C(=O)O)[C@@H](C)c1nc(-c2ccccc2)c[nH]1 [Cpd 226]		> 10000	19.71	48			7.91	
COC(=O)c1cc(CN(C(=O)[C@@H](N)Cc2c(C)cc(C(N)=O)cc2C)[C@@H](C)c2nc(-c3ccccc3)c[nH]2)ccn1 [Cpd 311]		1.02	41.00					
COc1cc(CN(C(=O)[C@@H](N)Cc2c(C)cc(C(N)=O)cc2C)[C@@H](C)c2nc(-c3ccccc3)c[nH]2)c(C(=O)O)cc1OC [Cpd 230]	5	48.9		10				
COc1ccc(CN(C(=O)[C@@H](N)Cc2c(C)cc(C(N)=O)cc2C)[C@@H](C)c2nc(-c3cccc(C(=O)O)c3)c[nH]2)cc1OC [Cpd 20]		> 10000	78.74				63	
COc1ccc(CN(C(=O)[C@@H](N)Cc2c(C)cc(C(N)=O)cc2C)[C@@H](C)c2nc(-c3cccc(Br)c3)c[nH]2)cc1C(=O)O [Cpd 288]	0.43	> 10000	74.54	0.17				
COc1ccc(CN(C(=O)[C@@H](N)Cc2c(C)cc(C(N)=O)cc2C)[C@@H](C)c2nc(-c3ccccc3Br)c[nH]2)cc1C(=O)O [Cpd 290]	0.43	> 10000	52.41	0.69				
CCOc1cccc(CN(C(=O)[C@@H](N)Cc2c(C)cc(O)cc2C)[C@@H](C)c2nc(-c3ccccc3)c[nH]2)c1 [Cpd 251]	0.08	18	53.94	0.26				
COC(=O)c1ccc(CN(C(=O)[C@@H](N)Cc2c(C)cc(C(N)=O)cc2C)[C@@H](C)c2nc(-c3ccccc3)c[nH]2)cc1 [Cpd 51]		27	66.04				2.7	113
COC(=O)c1ccc(CN(C(=O)[C@@H](N)Cc2c(C)cc(C(N)=O)cc2C)[C@@H](C)c2nc(-c3ccccc3)c[nH]2)cn1 [Cpd 255]		13.1	54.00		33.00	3.48		
COC(=O)c1ccc(CN(C(=O)[C@@H](N)Cc2c(C)cc(C(N)=O)cc2C)[C@@H](C)c2nc(-c3ccccc3)c[nH]2)nc1 [Cpd 252]		32.1	66.00		24.00	4.15		
Cc1cc(C(N)=O)cc(C)c1C[C@H](N)C(=O)N(Cc1ccc(C(=O)O)nc1)[C@@H](C)c1nc(-c2ccccc2)c[nH]1 [Cpd 254]		6.27	62.00		42.00	316		
Cc1cc(C(N)=O)cc(C)c1C[C@H](N)C(=O)N(Cc1ccc(C(=O)O)cn1)[C@@H](C)c1nc(-c2ccccc2)c[nH]1 [Cpd 253]		1.35	52.00		28.00	251		
